Measurements from patent US7157079B2, “Combined tumor suppressor gene therapy and chemotherapy in the treatment of neoplasms” (priority 1997, dated 2007).

What was measured:
[1] = test system: MRC-9 diploid fibroblast cells; assay: 3H-thymidine incorporation growth assay in normal cells; assay type: cell-based; conditions: MRC-9 vs tumor cells; FIG. 9
Description: In a second experiment, the efficacy of treatment of normal cells (MRC-9 cells) was compared with tumor cells (FIG. 9). In this experiment, growth was assayed as ^3H-thymidine incorporation rather than the MTT assay. […] As would be expected, the effect of tumor suppressor alone was negligible in normal cells and highly significant in tumor cells.

[2] = test system: SK-OV-3 ovarian tumor cells; assay: MTT cell death assay, p53 adenovirus combined with anti-cancer drug; assay type: cell-based, human; conditions: FIG. 1, TAXOL 0.001-20 μg/ml, p53 Ad 0.5-50 m.o.i., MTT on day 3
Description: In treatment three, the cells were contacted simultaneously with both the TAXOL® and the p53 adenovirus. Thus, the p53 Ad and TAXOL® can be administered within the same twenty four (24) hour period or concurrently.
Approximately 1.5×10^4 cells in culture medium (head and neck cell lines SCC-9, SCC-15, and SCC-25 in 1:1 mix of DMEM+ Ham's F12 media with 0;4 μg/ml cortisol and 10% FBS and 1% non-essential amino acids, prostate DU-145 and Ovarian SK-OV-3 in Eagles essential medium plus 10% FBS) were added to each well on a 96 well microtitre plate and cultured for about 4 hours at 37° C. and 5% CO2.
Cell death was then quantitated according to the method of Mosmann (1983) J. Immunol. Meth., 65: 55–63.
Dosing was performed as described above. Cell death was quantitated on day 3 using the MTT assay as described above. In addition, a dose response curve for p53 Ad alone (using the doses listed in Table 2) was generated (after […] cell exposure to the drug) and a dose response curve for TAXOL® alone was performed using the doses listed above (3 day cell exposure to the drug).
All cell lines were obtained from ATCC (Rockville, Md.). […]

[3] = test system: intraperitoneal SK-OV-3 tumors; assay: SK-OV-3 ovarian tumor model, cisplatin efficacy; assay type: in vivo, scid mice; conditions: day 20
Description: There were normally ten mice per group.
Established intraperitoneal SK-OV-3 tumors were treated with intraperitoneal doses of vehicles, p53 Ad, cisplatin, or both drugs. Mice were given six injections of p53 Ad over a period of two weeks. The total virus dose was 1.5×10^9 C.I.U. (3.1×10^10 viral particles).
Cisplatin efficacy: Female scid mice were injected with 5×10^6 SK-OV-3 ovarian tumor cells, I.P., on day 0. Mice were dosed I.P. on days 6, 8, 10, 13, 15, and 17 (p53 Ad only on D17). Mice received 0.2 ml total volume (0.1 ml cisplatin vehicle or cisplatin plus 0.1 ml Ad buffer or p53 Ad). The p53 Ad dose was 2.5×10^8 C.I.U./mouse/day (5.2×10^9 viral particles). The cisplatin dose was 2 mg/kg/day. Tumors were harvested and weighed on day 20.

MDA-MB-231 tumors = assay: Tumor growth with adenovirus in the absence or presence of low dose dexamethasone; conditions: s.c. pellet releasing 83.3 μg dexamethasone/day
Description: To investigate whether the immunosuppressant properties of low dose Dexamethasone (Dex) can inhibit the anti-adenovirus immune response (e.g., NK cell response) MDA-MB-231 tumors in scid mice were treated with recombinant virus of the invention in the absence and in the presence of dexamethasone.
Approximately 5×10^6 MDA-MB-231 cells/mouse were injected into the mammary fat pads of female scid mice on day 0. On day 11, dexamethasone or placebo pellets were implanted subcutaneously. The 5 mg pellets were designed to release 83.3 μg dexamethasone/day continuously for 60 days (Innovative Research of America, Sarasota, Fla.). All mice received a total of 10 peritumoral injections given once a day on days 14–18 and 21–25 (0.1 ml per injection).

SMILES | effect of anti-cancer chemotherapeutic alone, normal vs cancer cells [1] | other results
O=c1[nH]cc(F)c(=O)[nH]1 [5-FU, 5-fluorouracil] | more effective in normal cells than cancer cells | –
CC(=O)O[C@H]1C(=O)[C@@]2(C)[C@H]([C@H](OC(=O)c3ccccc3)[C@]3(O)C[C@H](OC(=O)[C@H](O)[C@@H](NC(=O)c4ccccc4)c4ccccc4)C(C)=C1C3(C)C)[C@]1(OC(C)=O)CO[C@@H]1C[C@@H]2O [TAXOL ®, paclitaxel] | – | inhibition of cell proliferation (as compared to the buffer control) [2]: decreased the rate of cell proliferation
N.N.[Cl][Pt][Cl] [cisplatin] | more effective in normal cells than cancer cells | bloody ascites and invasive tumor nodules in the diaphragm muscle [3]: absent
C[C@@H]1C[C@H]2[C@@H]3CCC4=CC(=O)C=C[C@]4(C)[C@@]3(F)[C@@H](O)C[C@]2(C)[C@@]1(O)C(=O)CO [dexamethasone] | – | adverse side effects (MDA-MB-231 tumors): No adverse side effects; effect on the growth rate of tumors (MDA-MB-231 tumors): no significant effect
COc1cccc2c1C(=O)c1c(O)c3c(c(O)c1C2=O)C[C@@](O)(C(=O)CO)C[C@@H]3O[C@H]1C[C@H](N)[C@H](O)[C@H](C)O1 [doxorubicin] | more effective in normal cells than cancer cells | –
COc1cc([C@@H]2c3cc4c(cc3[C@@H](O[C@@H]3O[C@@H]5CO[C@@H](C)O[C@H]5[C@H](O)[C@H]3O)[C@H]3COC(=O)[C@H]23)OCO4)cc(OC)c1O [etoposide] | more effective in normal cells than cancer cells | –
CN(Cc1cnc2nc(N)nc(N)c2n1)c1ccc(C(=O)N[C@@H](CCC(=O)O)C(=O)O)cc1 [methotrexate] | more effective in normal cells than cancer cells | –
